Several values for one entry are separate records, joined by “and”; a condition that tells them apart may be missing. Equal values may be shown once.
Each molecule was assayed against human SCD1 (Homo sapiens (Human), UniProt O00767) (assay: Yeast growth assay, strain expressing human SCD1 as the sole desaturase (reduced growth as surrogate for SCD inhibition)). Details: yeast with OLE1 deleted expressing human SCD1 from a plasmid; growth read as OD600 after 40 h at 30° C.; top drug concentration 33.3 μM.
Assay type: cell-based
Outline: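 Human SCD1 or SCD5 expressed from a plasmid in OLE1-deleted yeast as the sole desaturase. Cells washed free of Tween and fatty acids, grown with compound in SD-Ura glucose medium 40 h at 30 °C; growth measured as OD600, reduced growth taken as SCD inhibition.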

human SCD1, sequence (O00767 whole entry): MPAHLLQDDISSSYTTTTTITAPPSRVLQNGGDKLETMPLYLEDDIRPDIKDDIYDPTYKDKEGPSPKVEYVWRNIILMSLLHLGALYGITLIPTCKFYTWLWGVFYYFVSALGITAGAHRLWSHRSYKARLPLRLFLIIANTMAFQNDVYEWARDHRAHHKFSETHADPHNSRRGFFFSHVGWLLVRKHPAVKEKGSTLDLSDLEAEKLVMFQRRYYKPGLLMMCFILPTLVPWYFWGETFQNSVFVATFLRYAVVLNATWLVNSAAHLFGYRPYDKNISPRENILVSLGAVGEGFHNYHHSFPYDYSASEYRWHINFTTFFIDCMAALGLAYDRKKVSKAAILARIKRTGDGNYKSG

`O=C(Nc1cnn(Cc2ccccc2)c1)c1cc(-c2c(F)cccc2F)on1` [Compound 195] was tested. Which IC50 did it give?
Its IC50 is > 45 µM.

For `O=C(Nc1cnn(Cc2ncccc2C(F)(F)F)c1)c1cc(-c2ccccc2F)on1` [Compound 196], which IC50 is on record?
The IC50 was > 45 µM.

How did the IC50 turn out when `O=C(Nc1cnn(Cc2cnccc2C(F)(F)F)c1)c1cc(-c2ccncc2)on1` [Compound 202] was run?
Its IC50 is > 45 µM.

With `O=C(c1cc(-c2ccc3c(c2)OCO3)on1)N1CCC1c1ccccc1` (stereo not drawn) [Compound 204, (5-(benzo[d][1,3]dioxol-5-yl)isoxazol-3-yl)(2-phenylazetidin-1-yl)methanone] as the molecule, how does the IC50 read?
The IC50 was 30 µM and 33.9 µM.

`O=C(c1cc(-c2ccco2)on1)N1CC(Cc2ccccc2)C1` [Compound 205, (3-benzylazetidin-1-yl)-[5-(2-furyl)isoxazol-3-yl]methanone] was tested. Which IC50 did it give?
Its IC50 is 0.23 µM.

Which IC50 does the source give for `O=C(c1cc(-c2ccco2)on1)N1CC(Oc2ccccc2)C1` [Compound 206, [5-(2-furyl)isoxazol-3-yl]-(3-phenoxyazetidin-1-yl)methanone] here?
The IC50 was 0.28 µM.

`O=C(c1cc(-c2ccco2)on1)N1CC(c2ccccc2)C1` [Compound 207, [5-(2-furyl)isoxazol-3-yl]-(3-phenylazetidin-1-yl)methanone] was tested. Which IC50 did it give?
The IC50 was 2.56 µM.

How did the IC50 turn out when `O=C(c1cc(-c2ccc3c(c2)OCO3)on1)N1CC(Oc2ccccc2)C1` [Compound 208] was run?
The IC50 was > 45 µM.

For `O=C(c1cc(-c2ccccc2)on1)N1CC2(C1)CN(c1ccccc1)C2` [Compound 209], which IC50 is on record?
Its IC50 is > 45 µM.

How did the IC50 turn out when `O=C(c1cc(-c2ccco2)on1)N1CC(Nc2ccccc2)C1` [Compound 210] was run?
Its IC50 is > 45 µM.

How did the IC50 turn out when `O=C(c1cc(-c2ccccc2)on1)N1CC(c2ccccc2)C1` [Compound 212, (3-phenylazetidin-1-yl)-(5-phenylisoxazol-3-yl)methanone] was run?
Its IC50 is 4.52 µM.

For `O=C(c1cc(-c2ccccc2)on1)N1CC(Oc2ccccc2)C1` [Compound 213], which IC50 is on record?
The IC50 was 0.49 µM.

How did the IC50 turn out when `O=C(c1cc(-c2ccccc2)on1)N1CC(Nc2ccccc2)C1` [Compound 214] was run?
Its IC50 is > 45 µM.

`O=C(c1cc(-c2ccccc2)on1)N1CC(CCl)(CNc2ccccc2)C1` [Compound 215] was tested. Which IC50 did it give?
The IC50 was 1.86 µM.

`O=C(c1cc(-c2ccc3c(c2)OCO3)on1)N1CC(Cc2ccccc2)C1` [Compound 216, [5-(1,3-benzodioxol-5-yl)isoxazol-3-yl]-(3-benzylazetidin-1-yl)methanone] was tested. Which IC50 did it give?
The IC50 was > 45 µM.

Which IC50 does the source give for `O=C(c1cc(-c2ccc3c(c2)OCO3)on1)N1CCC1c1ccccc1F` (stereo not drawn) [Compound 218] here?
Its IC50 is > 45 µM.

`O=C(c1cc(-c2ccc3c(c2)OCO3)on1)N1CCC1c1ccccc1Cl` (stereo not drawn) [Compound 219] was tested. Which IC50 did it give?
The IC50 was > 45 µM.

`O=C(c1cc(-c2ccc3c(c2)OCO3)on1)N1CCC1c1cccc(F)c1` (stereo not drawn) [Compound 220, [5-(1,3-benzodioxol-5-yl)isoxazol-3-yl]-[2-(3-fluorophenyl)azetidin-1-yl]methanone] was tested. Which IC50 did it give?
The IC50 was > 45 µM.

For `O=C(c1cc(-c2ccc3c(c2)OCO3)on1)N1CC(Nc2ccccc2)C1` [Compound 221], which IC50 is on record?
Its IC50 is > 45 µM.

With `O=C(c1cc(-c2ccc3c(c2)OCO3)on1)N1CC2(C1)CN(c1ccccc1)C2` [Compound 222] as the molecule, how does the IC50 read?
The IC50 was > 45 µM.

`O=C(c1cc(-c2ccc3c(c2)OCO3)on1)N1CCC1c1ccc(F)cc1` (stereo not drawn) [Compound 223, [5-(1,3-benzodioxol-5-yl)isoxazol-3-yl]-[2-(4-fluorophenyl)azetidin-1-yl]methanone] was tested. Which IC50 did it give?
Its IC50 is > 45 µM.

`O=C(c1cc(-c2ccc3c(c2)OCO3)on1)N1CC2(C1)CC(O)(c1ccccc1)C2` [Compound 224] was tested. Which IC50 did it give?
The IC50 was > 45 µM.

With `O=C(c1cc(-c2ccccc2)on1)N1CC2(C=C(c3ccccc3)C2)C1` [Compound 225, (6-phenyl-2-azaspiro[3.3]hept-6-en-2-yl)-(5-phenylisoxazol-3-yl)methanone] as the molecule, how does the IC50 read?
The IC50 was > 45 µM.

For `O=C(c1cc(-c2ccccc2)on1)N1CC2(CC(c3ccccc3)C2)C1` [Compound 227, (6-phenyl-2-azaspiro[3.3]heptan-2-yl)-(5-phenylisoxazol-3-yl)methanone], which IC50 is on record?
Its IC50 is > 45 µM.

Which IC50 does the source give for `O=C(c1cc(-c2ccncc2)on1)N1CC(c2ccccc2)C1` [Compound 229, (3-phenylazetidin-1-yl)(5-(pyridin-4-yl)isoxazol-3-yl)methanone, trifluoroacetic acid] here?
The IC50 was 0.66 µM.

For `CNC(=O)c1ccc(-c2cc(C(=O)N3CC(Cc4ccccc4)C3)no2)cc1` [Compound 230], which IC50 is on record?
Its IC50 is > 45 µM.

For `Cn1ncc2ccc(-c3cc(C(=O)N4CC(c5ccccc5)C4)no3)cc21` [Compound 232, (5-(1-methyl-1H-indazol-6-yl)isoxazol-3-yl)(3-phenylazetidin-1-yl)methanone], which IC50 is on record?
The IC50 was > 45 µM.

What follows are molecules tested against human SCD5 (Homo sapiens (Human), UniProt Q86SK9) (assay: Yeast growth assay, strain expressing human SCD5 as the sole desaturase (reduced growth as surrogate for SCD inhibition)). Details: yeast with OLE1 deleted expressing human SCD5 from a plasmid; growth read as OD600 after 40 h at 30° C.; top drug concentration 33.3 μM.
Assay type: cell-based
Procedure: Strains expressing SCD1 or SCD5 as the sole desaturase, the human SCD1 and SCD5 genes were used to evaluate inhibition of SCD1/SCD5 using reduced growth as a surrogate for SCD inhibition. These yeast strains express human SCD1 or SCD5 from a plasmid harbored in a strain in which the yeast OLE1 gene is deleted.
All compound profiling experiments were performed using the same basic protocol. Yeast were cultured using standard techniques in complete synthetic media lacking uracil and containing yeast nitrogen base supplemented with 2% (w/v) glucose (SD-Ura) Starter cultures were inoculated in 3 mL SD-Ura media containing 0.01% tween and 0.2 mM palmitoleic and oleic acid. Cultures were incubated overnight in a 30° C. shaker incubator (225 rpm). Saturated morning cultures were centrifuged, washed in SD-Ura media lacking TWEEN-20 and fatty acids, and then diluted 1:20 in fresh SD-Ura media also lacking TWEEN-20 and fatty acids.
Compound administration was performed in two separate steps. First, 15 μL of SD-Ura was dispensed into clear 384-well assay plates using a MULTIDROP™ Combi reagent dispenser. […] The cultures described above were centrifuged and washed with media lacking TWEEN-20 or oleic and palmitoleic acids.
After yeast delivery, assay plates were incubated under humidified conditions at 30° C. for 40 h. Yeast growth was monitored by reading the OD600 of each well using a microplate reader (Perkin Elmer EnVision™).

human SCD5, sequence (Q86SK9 whole entry): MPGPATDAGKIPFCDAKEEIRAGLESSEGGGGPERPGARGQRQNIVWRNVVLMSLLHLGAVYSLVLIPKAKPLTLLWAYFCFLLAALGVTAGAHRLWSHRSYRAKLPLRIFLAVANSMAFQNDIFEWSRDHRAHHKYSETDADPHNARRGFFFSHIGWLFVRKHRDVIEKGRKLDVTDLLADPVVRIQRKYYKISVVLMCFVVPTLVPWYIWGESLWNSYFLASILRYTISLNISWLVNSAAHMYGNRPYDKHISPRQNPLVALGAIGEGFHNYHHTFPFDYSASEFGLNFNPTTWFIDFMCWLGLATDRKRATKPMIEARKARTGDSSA

`O=C(Nc1cnn(Cc2ccccc2)c1)c1cc(-c2c(F)cccc2F)on1` [Compound 195] was tested. Which IC50 did it give?
The IC50 was > 45 µM.

Which IC50 does the source give for `O=C(Nc1cnn(Cc2ncccc2C(F)(F)F)c1)c1cc(-c2ccccc2F)on1` [Compound 196] here?
The IC50 was > 45 µM.

`O=C(Nc1cnn(Cc2cnccc2C(F)(F)F)c1)c1cc(-c2ccncc2)on1` [Compound 202] was tested. Which IC50 did it give?
Its IC50 is > 45 µM.

Which IC50 does the source give for `O=C(c1cc(-c2ccc3c(c2)OCO3)on1)N1CCC1c1ccccc1` (stereo not drawn) [Compound 204, (5-(benzo[d][1,3]dioxol-5-yl)isoxazol-3-yl)(2-phenylazetidin-1-yl)methanone] here?
Its IC50 is 3.5 µM and 2.28 µM.

Which IC50 does the source give for `O=C(c1cc(-c2ccco2)on1)N1CC(Cc2ccccc2)C1` [Compound 205, (3-benzylazetidin-1-yl)-[5-(2-furyl)isoxazol-3-yl]methanone] here?
Its IC50 is 0.63 µM.

Which IC50 does the source give for `O=C(c1cc(-c2ccco2)on1)N1CC(Oc2ccccc2)C1` [Compound 206, [5-(2-furyl)isoxazol-3-yl]-(3-phenoxyazetidin-1-yl)methanone] here?
The IC50 was 1.4 µM.

`O=C(c1cc(-c2ccco2)on1)N1CC(c2ccccc2)C1` [Compound 207, [5-(2-furyl)isoxazol-3-yl]-(3-phenylazetidin-1-yl)methanone] was tested. Which IC50 did it give?
Its IC50 is 1.14 µM.

Which IC50 does the source give for `O=C(c1cc(-c2ccc3c(c2)OCO3)on1)N1CC(Oc2ccccc2)C1` [Compound 208] here?
The IC50 was > 45 µM.

How did the IC50 turn out when `O=C(c1cc(-c2ccccc2)on1)N1CC2(C1)CN(c1ccccc1)C2` [Compound 209] was run?
The IC50 was > 45 µM.

`O=C(c1cc(-c2ccco2)on1)N1CC(Nc2ccccc2)C1` [Compound 210] was tested. Which IC50 did it give?
Its IC50 is > 45 µM.

`O=C(c1cc(-c2ccccc2)on1)N1CC(c2ccccc2)C1` [Compound 212, (3-phenylazetidin-1-yl)-(5-phenylisoxazol-3-yl)methanone] was tested. Which IC50 did it give?
Its IC50 is 1.62 µM.

With `O=C(c1cc(-c2ccccc2)on1)N1CC(Oc2ccccc2)C1` [Compound 213] as the molecule, how does the IC50 read?
Its IC50 is > 45 µM.

With `O=C(c1cc(-c2ccccc2)on1)N1CC(Nc2ccccc2)C1` [Compound 214] as the molecule, how does the IC50 read?
The IC50 was > 45 µM.

With `O=C(c1cc(-c2ccccc2)on1)N1CC(CCl)(CNc2ccccc2)C1` [Compound 215] as the molecule, how does the IC50 read?
Its IC50 is 1.36 µM.

How did the IC50 turn out when `O=C(c1cc(-c2ccc3c(c2)OCO3)on1)N1CC(Cc2ccccc2)C1` [Compound 216, [5-(1,3-benzodioxol-5-yl)isoxazol-3-yl]-(3-benzylazetidin-1-yl)methanone] was run?
The IC50 was 1.13 µM.

With `O=C(c1cc(-c2ccc3c(c2)OCO3)on1)N1CCC1c1ccccc1F` (stereo not drawn) [Compound 218] as the molecule, how does the IC50 read?
The IC50 was > 45 µM.

How did the IC50 turn out when `O=C(c1cc(-c2ccc3c(c2)OCO3)on1)N1CCC1c1ccccc1Cl` (stereo not drawn) [Compound 219] was run?
The IC50 was > 45 µM.

For `O=C(c1cc(-c2ccc3c(c2)OCO3)on1)N1CCC1c1cccc(F)c1` (stereo not drawn) [Compound 220, [5-(1,3-benzodioxol-5-yl)isoxazol-3-yl]-[2-(3-fluorophenyl)azetidin-1-yl]methanone], which IC50 is on record?
Its IC50 is 2.92 µM.

`O=C(c1cc(-c2ccc3c(c2)OCO3)on1)N1CC(Nc2ccccc2)C1` [Compound 221] was tested. Which IC50 did it give?
The IC50 was > 45 µM.

How did the IC50 turn out when `O=C(c1cc(-c2ccc3c(c2)OCO3)on1)N1CC2(C1)CN(c1ccccc1)C2` [Compound 222] was run?
Its IC50 is > 45 µM.

With `O=C(c1cc(-c2ccc3c(c2)OCO3)on1)N1CCC1c1ccc(F)cc1` (stereo not drawn) [Compound 223, [5-(1,3-benzodioxol-5-yl)isoxazol-3-yl]-[2-(4-fluorophenyl)azetidin-1-yl]methanone] as the molecule, how does the IC50 read?
Its IC50 is 3.26 µM.

How did the IC50 turn out when `O=C(c1cc(-c2ccc3c(c2)OCO3)on1)N1CC2(C1)CC(O)(c1ccccc1)C2` [Compound 224] was run?
Its IC50 is 0.95 µM.

`O=C(c1cc(-c2ccccc2)on1)N1CC2(C=C(c3ccccc3)C2)C1` [Compound 225, (6-phenyl-2-azaspiro[3.3]hept-6-en-2-yl)-(5-phenylisoxazol-3-yl)methanone] was tested. Which IC50 did it give?
Its IC50 is 6.41 µM.

With `O=C(c1cc(-c2ccccc2)on1)N1CC2(CC(c3ccccc3)C2)C1` [Compound 227, (6-phenyl-2-azaspiro[3.3]heptan-2-yl)-(5-phenylisoxazol-3-yl)methanone] as the molecule, how does the IC50 read?
The IC50 was 8.87 µM.

For `O=C(c1cc(-c2ccncc2)on1)N1CC(c2ccccc2)C1` [Compound 229, (3-phenylazetidin-1-yl)(5-(pyridin-4-yl)isoxazol-3-yl)methanone, trifluoroacetic acid], which IC50 is on record?
The IC50 was 7.17 µM.

With `CNC(=O)c1ccc(-c2cc(C(=O)N3CC(Cc4ccccc4)C3)no2)cc1` [Compound 230] as the molecule, how does the IC50 read?
Its IC50 is > 45 µM.

`Cn1ncc2ccc(-c3cc(C(=O)N4CC(c5ccccc5)C4)no3)cc21` [Compound 232, (5-(1-methyl-1H-indazol-6-yl)isoxazol-3-yl)(3-phenylazetidin-1-yl)methanone] was tested. Which IC50 did it give?
Its IC50 is 1.63 µM.

Source: US10919885B2, “Compounds and uses thereof” (Yumanity Therapeutics, Inc., priority 2018, dated 2021)
